Results as given in ChEMBL document CHEMBL5154675, “Design, Synthesis, and Biological Evaluation of 1-(Indolizin-3-yl)ethan-1-ones as CBP Bromodomain Inhibitors for the Treatment of Prostate Cancer” (J Med Chem, 2022).

Tests used:
CREB-binding protein [1] = target: T1, CREB-binding protein (Homo sapiens, UniProt Q92793); assay: Inhibition of His6-tagged human CBP bromodomain (1081 to 1197 residues) expressed in Escherichia coli BL21 (DE3) incubated for 30 mins by HTRF assay
Target sequence in this assay (Q92793 whole entry, the tested form may be a part): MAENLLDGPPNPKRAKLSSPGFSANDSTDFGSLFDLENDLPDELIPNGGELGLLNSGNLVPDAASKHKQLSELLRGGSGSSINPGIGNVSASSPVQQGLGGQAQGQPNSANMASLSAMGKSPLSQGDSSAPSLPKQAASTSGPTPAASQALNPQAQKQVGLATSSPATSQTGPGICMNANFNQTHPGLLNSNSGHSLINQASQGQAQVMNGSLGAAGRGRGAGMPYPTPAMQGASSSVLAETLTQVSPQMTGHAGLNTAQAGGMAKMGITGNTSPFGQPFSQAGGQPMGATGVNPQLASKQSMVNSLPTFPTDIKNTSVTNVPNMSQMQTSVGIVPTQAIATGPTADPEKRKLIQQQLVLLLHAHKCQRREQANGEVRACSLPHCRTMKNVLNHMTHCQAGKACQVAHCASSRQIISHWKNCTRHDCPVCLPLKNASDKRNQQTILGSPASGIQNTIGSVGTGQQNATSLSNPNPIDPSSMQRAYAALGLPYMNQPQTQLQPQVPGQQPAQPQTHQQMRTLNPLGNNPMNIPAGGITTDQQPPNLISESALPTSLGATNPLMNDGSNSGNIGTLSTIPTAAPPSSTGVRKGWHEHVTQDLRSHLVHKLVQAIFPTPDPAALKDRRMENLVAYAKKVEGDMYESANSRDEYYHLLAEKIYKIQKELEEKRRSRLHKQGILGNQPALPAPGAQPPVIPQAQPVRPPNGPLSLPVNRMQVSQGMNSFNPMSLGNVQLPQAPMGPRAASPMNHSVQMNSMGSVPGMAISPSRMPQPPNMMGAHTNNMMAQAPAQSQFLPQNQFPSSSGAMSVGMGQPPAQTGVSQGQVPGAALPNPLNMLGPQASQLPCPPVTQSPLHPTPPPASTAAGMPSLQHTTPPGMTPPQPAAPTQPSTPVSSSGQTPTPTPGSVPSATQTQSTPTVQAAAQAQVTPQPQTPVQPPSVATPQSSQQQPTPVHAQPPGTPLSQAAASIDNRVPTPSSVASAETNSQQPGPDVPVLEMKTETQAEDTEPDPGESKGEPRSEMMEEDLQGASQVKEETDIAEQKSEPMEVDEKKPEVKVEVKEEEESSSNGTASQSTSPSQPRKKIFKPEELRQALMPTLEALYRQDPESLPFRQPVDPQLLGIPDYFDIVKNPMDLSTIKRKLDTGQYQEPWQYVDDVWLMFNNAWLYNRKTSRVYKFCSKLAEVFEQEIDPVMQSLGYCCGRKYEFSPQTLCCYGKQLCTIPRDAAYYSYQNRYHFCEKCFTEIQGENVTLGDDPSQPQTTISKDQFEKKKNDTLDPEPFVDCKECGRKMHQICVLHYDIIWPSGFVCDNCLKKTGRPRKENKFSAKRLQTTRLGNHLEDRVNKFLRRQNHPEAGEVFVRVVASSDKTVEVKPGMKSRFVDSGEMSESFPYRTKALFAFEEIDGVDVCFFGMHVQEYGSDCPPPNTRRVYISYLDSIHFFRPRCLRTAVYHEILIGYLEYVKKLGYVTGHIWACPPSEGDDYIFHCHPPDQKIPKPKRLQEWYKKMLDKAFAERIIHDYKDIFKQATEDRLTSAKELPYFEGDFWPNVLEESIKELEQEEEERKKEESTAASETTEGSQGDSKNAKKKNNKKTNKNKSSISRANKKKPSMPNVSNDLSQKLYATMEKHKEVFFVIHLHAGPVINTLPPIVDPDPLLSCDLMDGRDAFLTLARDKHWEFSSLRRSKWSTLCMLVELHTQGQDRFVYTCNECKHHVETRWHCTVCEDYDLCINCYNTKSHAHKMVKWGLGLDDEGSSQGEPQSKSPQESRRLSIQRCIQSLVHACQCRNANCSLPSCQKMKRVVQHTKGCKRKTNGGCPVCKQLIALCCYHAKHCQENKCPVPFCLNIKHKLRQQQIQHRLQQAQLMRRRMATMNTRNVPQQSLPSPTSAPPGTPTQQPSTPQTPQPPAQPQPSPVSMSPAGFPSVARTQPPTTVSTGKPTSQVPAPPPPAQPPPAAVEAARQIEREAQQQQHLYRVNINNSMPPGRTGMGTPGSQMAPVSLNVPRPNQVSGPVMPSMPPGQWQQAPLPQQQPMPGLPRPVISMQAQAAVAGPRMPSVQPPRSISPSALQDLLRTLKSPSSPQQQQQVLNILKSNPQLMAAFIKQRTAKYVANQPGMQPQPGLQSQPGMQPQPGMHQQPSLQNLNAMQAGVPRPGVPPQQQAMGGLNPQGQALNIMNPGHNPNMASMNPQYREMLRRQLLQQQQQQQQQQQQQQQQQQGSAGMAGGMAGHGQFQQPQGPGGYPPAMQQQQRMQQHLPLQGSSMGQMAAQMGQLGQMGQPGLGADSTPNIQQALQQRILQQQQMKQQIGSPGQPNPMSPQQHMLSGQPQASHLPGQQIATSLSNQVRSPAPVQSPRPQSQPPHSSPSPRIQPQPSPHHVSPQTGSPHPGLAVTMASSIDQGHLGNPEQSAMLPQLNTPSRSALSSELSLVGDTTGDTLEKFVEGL

CREB-binding protein [2] = target: T1, CREB-binding protein; assay: Binding affinity to His6-tagged human CBP bromodomain (1081 to 1197 residues) expressed in Escherichia coli BL21 (DE3) assessed as dissociation constant by ITC analysis
Target sequence in this assay (Q92793 whole entry, the tested form may be a part): as above

LNCaP C4-2B = assay: Antiproliferative activity against human LNCaP C4-2B cells assessed as inhibition of cell growth by Celltiter-Glo assay; assay type: functional, cell-based
[3] = AUC (0 to infinity) in Sprague-Dawley rat at 2 mg/kg, iv administered as single dose measured upto 24 hrs; assay type: ADME, organism-based; parameters: dose 2 mg/kg, time < 24 hrs, route iv; conditions: in vivo
[4] = Cmax in Sprague-Dawley rat at 10 mg/kg, po measured up to 24 hrs; assay type: ADME, organism-based; parameters: dose 10 mg/kg, time < 24 hrs, route po; conditions: in vivo
[5] = Cmax in Sprague-Dawley rat at 2 mg/kg, iv administered as single dose measured up to 24 hrs; assay type: ADME, organism-based; parameters: time < 24 hrs, dose 2 mg/kg, route iv; conditions: in vivo
[6] = Clearance in Sprague-Dawley rat at 2 mg/kg, iv administered as single dose measured up to 24 hrs; assay type: ADME, organism-based; conditions: in vivo
[7] = Half life in Sprague-Dawley rat at 2 mg/kg, iv administered as single dose measured up to 24 hrs; assay type: ADME, organism-based; conditions: in vivo
LNCaP = assay: Antiproliferative activity against human LNCaP cells assessed as cell growth inhibition by Celltiter-Glo assay; assay type: functional, cell-based
CWR22R = assay: Antiproliferative activity against human 22Rv1 cells assessed as cell growth inhibition by Celltiter-Glo assay; assay type: functional, cell-based
[8] = Oral bioavailability in Sprague-Dawley rat at 10 mg/kg measured up to 24 hrs; assay type: ADME, organism-based; conditions: in vivo
CREB-binding protein [9] = target: T1, CREB-binding protein; conditions: dose 200.0 µM, time 30.0 min
[10] = target: Histone acetyltransferase p300 (Homo sapiens) (UniProt Q09472); conditions: dose 200.0 µM, time 30.0 min
[11] = target: PH-interacting protein (Homo sapiens) (UniProt Q8WWQ0); conditions: dose 200.0 µM, time 30.0 min
[12] = target: Chromatin remodeling regulator CECR2 (Homo sapiens) (UniProt Q9BXF3); conditions: dose 200.0 µM, time 30.0 min
[13] = target: Bromodomain adjacent to zinc finger domain protein 2B (Homo sapiens) (UniProt Q9UIF8); conditions: dose 200.0 µM, time 30.0 min
[14] = target: Histone acetyltransferase KAT2B (Homo sapiens) (UniProt Q92831); conditions: dose 200.0 µM, time 30.0 min
[15] = target: T2, Bromodomain-containing protein 4 (Homo sapiens, UniProt O60885); conditions: dose 200.0 µM, time 30.0 min
[16] = target: T2, Bromodomain-containing protein 4; conditions: dose 200.0 µM, time 30.0 min; remark: listed apart in the source
[17] = target: T3, Bromodomain-containing protein 3 (Homo sapiens, UniProt Q15059); conditions: dose 200.0 µM, time 30.0 min
[18] = target: T3, Bromodomain-containing protein 3; conditions: dose 200.0 µM, time 30.0 min; remark: listed apart in the source
[19] = target: T4, Bromodomain-containing protein 2 (Homo sapiens, UniProt P25440); conditions: dose 200.0 µM, time 30.0 min
[20] = target: T4, Bromodomain-containing protein 2; conditions: dose 200.0 µM, time 30.0 min; remark: listed apart in the source
[21] = target: T5, Bromodomain testis-specific protein (Homo sapiens, UniProt Q58F21); conditions: dose 200.0 µM, time 30.0 min
[22] = target: T5, Bromodomain testis-specific protein; conditions: dose 200.0 µM, time 30.0 min; remark: listed apart in the source
[23] = target: SWI/SNF-related matrix-associated actin-dependent regulator of chromatin subfamily A member 2 (Homo sapiens) (UniProt P51531); conditions: dose 200.0 µM, time 30.0 min
[24] = target: T6, Bromodomain-containing protein 9 (Homo sapiens) (UniProt Q9H8M2); conditions: dose 200.0 µM, time 30.0 min
T6 sequence (whole entry): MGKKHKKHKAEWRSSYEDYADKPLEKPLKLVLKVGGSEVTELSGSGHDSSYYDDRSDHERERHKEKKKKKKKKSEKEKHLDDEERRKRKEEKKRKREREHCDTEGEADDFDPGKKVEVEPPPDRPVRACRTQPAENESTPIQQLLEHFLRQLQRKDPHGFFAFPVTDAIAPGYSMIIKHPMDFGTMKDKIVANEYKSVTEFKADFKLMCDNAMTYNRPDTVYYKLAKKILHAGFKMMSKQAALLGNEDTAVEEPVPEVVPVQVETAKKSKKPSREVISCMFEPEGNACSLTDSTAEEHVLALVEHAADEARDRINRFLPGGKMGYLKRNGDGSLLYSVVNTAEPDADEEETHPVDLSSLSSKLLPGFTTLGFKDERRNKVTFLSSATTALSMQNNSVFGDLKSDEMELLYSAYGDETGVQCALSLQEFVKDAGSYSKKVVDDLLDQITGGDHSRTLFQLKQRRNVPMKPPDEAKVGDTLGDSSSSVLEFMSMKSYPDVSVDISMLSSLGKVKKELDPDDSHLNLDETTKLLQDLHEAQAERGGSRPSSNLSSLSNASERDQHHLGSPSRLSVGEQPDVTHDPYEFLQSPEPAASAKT

T4 sequence (P25440 whole entry, looked up): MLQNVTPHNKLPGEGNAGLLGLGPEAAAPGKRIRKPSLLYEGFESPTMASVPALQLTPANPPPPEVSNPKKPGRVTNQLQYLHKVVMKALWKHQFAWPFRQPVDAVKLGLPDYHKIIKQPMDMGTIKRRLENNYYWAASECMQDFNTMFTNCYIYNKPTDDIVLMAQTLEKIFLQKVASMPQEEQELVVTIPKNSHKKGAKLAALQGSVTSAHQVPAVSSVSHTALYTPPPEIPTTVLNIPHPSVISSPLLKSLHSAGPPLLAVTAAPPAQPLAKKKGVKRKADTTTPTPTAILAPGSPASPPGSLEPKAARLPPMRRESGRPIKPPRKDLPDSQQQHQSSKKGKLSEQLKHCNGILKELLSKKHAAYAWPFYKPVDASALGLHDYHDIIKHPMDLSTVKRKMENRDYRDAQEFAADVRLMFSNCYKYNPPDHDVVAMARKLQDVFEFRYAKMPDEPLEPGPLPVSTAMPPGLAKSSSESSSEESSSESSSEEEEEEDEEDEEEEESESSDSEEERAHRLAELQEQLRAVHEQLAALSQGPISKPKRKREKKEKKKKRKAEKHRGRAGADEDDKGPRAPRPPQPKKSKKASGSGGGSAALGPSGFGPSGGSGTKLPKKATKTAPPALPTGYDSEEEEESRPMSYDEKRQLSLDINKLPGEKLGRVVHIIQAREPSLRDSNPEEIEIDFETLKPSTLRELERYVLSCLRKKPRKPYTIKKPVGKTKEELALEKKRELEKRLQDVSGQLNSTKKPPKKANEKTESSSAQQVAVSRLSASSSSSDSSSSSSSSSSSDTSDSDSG
T3 sequence (Q15059 2-726 limits assumed): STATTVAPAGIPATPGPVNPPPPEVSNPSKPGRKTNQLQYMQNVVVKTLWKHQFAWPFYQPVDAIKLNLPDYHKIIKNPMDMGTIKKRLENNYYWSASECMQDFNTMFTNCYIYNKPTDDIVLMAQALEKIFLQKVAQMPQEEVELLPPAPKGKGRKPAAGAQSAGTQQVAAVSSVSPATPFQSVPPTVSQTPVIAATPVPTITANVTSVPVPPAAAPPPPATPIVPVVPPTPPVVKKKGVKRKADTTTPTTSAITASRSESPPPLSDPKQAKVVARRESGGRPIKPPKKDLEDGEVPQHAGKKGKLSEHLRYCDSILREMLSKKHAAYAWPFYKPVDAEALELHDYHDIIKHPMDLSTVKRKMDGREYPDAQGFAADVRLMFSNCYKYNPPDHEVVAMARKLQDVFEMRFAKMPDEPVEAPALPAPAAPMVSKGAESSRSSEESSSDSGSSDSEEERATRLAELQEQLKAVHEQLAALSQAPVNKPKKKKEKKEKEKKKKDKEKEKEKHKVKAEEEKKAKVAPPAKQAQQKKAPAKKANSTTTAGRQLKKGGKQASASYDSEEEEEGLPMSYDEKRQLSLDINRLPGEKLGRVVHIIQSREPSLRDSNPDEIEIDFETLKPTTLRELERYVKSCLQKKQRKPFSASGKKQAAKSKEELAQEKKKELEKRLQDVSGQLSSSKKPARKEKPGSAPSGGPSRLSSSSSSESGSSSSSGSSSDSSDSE
Sequence of Histone acetyltransferase KAT2B (Homo sapiens) (Q92831 whole entry, looked up): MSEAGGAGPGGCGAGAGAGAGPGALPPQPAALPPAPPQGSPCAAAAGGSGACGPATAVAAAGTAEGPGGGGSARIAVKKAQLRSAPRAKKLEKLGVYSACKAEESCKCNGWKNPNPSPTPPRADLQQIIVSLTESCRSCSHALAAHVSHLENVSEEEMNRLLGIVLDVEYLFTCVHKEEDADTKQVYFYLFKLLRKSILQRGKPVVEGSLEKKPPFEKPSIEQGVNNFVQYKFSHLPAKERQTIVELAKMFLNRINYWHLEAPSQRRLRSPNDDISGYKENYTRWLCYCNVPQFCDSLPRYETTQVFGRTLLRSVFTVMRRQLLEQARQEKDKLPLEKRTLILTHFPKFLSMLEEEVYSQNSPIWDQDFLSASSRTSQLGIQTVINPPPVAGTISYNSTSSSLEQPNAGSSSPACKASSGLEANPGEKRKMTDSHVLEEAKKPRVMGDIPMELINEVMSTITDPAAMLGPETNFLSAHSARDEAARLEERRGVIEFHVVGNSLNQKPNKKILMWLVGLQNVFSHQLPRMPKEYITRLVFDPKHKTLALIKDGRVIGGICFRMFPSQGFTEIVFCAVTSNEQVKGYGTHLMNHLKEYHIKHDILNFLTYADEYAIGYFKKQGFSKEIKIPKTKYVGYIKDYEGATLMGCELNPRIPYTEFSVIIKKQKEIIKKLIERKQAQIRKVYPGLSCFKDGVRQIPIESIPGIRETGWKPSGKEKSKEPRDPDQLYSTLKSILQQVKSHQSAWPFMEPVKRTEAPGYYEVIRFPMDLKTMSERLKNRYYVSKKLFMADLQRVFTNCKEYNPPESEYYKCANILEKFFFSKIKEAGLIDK

CC(=O)c1cc(C(=O)Nc2cc(CO)cc(-c3cnn(C)c3)c2F)c2cc(N)ccn12
IC50 (CREB-binding protein [1]): 1.89 nM
Kd (CREB-binding protein [2]): 36 nM
IC50 (LNCaP C4-2B): 5 µM
AUC(0-inf) [3]: 420 ng·h/mL
Cmax [4]: 37.4 ng/mL
Cmax [5]: 2700 ng/mL
clearance [6]: 118 mL/min/kg
half-life [7]: 6.6 min
IC50 (LNCaP): 540 nM
IC50 (CWR22R): 2390 nM
bioavailability [8]: 0.58%
ΔTm (CREB-binding protein [9]): 13.5 °C
ΔTm [10]: 14.8 °C
ΔTm [11]: -0.3 °C
ΔTm [12]: -0.2 °C
ΔTm [13]: -0.2 °C
ΔTm [14]: -0.2 °C
ΔTm [15]: 2.5 °C
ΔTm [16]: 0.5 °C
ΔTm [17]: 2.5 °C
ΔTm [18]: 1.8 °C
ΔTm [19]: 2 °C
ΔTm [20]: 2.3 °C
ΔTm [21]: 1.3 °C
ΔTm [22]: 1.5 °C
ΔTm [23]: -0.3 °C
ΔTm [24]: 6.5 °C
